How the values were obtained:
[1] = test system: anemic DD-CKD patients with prevalent dialysis and established ESA treatment; assay: Phase 3 Prevalent DD-CKD (Conversion) trial, vadadustat vs darbepoetin alfa; type: in vivo, human; conditions: for Ferritin, mean / Hepcidin, mean / TSAT, mean: Prevalent trial
Experimental: (§1) Two randomized Phase 3, open-label, sponsor-blind, active-controlled non-inferiority (NI) trials were conducted in anemic DD-CKD patients with incident dialysis and limited ESA exposure (Correction/Conversion trial) and with prevalent dialysis and established ESA treatment (Conversion trial). The primary safety endpoint was prespecified as the time to first major adverse cardiovascular event (MACE) (all-cause mortality, non-fatal MI, or non-fatal stroke) pooled across the two trials. Primary and key secondary efficacy endpoints were mean change in Hb from baseline [BL] to wks 24-36 and to wks 40-52 between two treatment arms, respectively.
Phase 3, randomized, open-label, active-controlled study of vadadustat vs darbepoetin alfa for the maintenance treatment of anemia after conversion from ESA therapy.
Following a Screening period of up to 8 weeks (56 days), subjects who met all inclusion and none of the exclusion criteria were randomized 1:1 to vadadustat or darbepoetin alfa.
Randomization were stratified by: • Geographic region (United States [US] versus European Union [EU] versus Rest of World [ROW]) • New York Heart Association congestive heart failure (CHF) Class 0 (no CHF) or I versus II or III. • Study entry Hb (<10.0 versus ≥10.0 g/dL).
Following randomization, there were 3 periods during the study: • Conversion and Maintenance Period (Weeks 0 to 52): conversion to study medication for maintaining Hb (Weeks 0-23), primary efficacy evaluation (Weeks 24-36), and secondary efficacy evaluation (Weeks 40-52). • Long-term Treatment Period (Weeks 53 to End of Treatment [EOT]): continued study medication to assess long-term safety. • Follow-up (EOT+4 weeks): post-treatment visit (either in person or via telephone) for safety.
Inclusion Criteria: • ≥18 years of age. • Receiving chronic maintenance dialysis (either peritoneal or hemodialysis) for end-stage kidney disease for at least 12 weeks prior to Screening. • Currently maintained on ESA therapy, with a dose received within 6 weeks prior to or during Screening. • Mean screening Hb between 8.0 and 11.0 g/dL (inclusive) in the US and between 9.0 and 12.0 g/dL (inclusive) outside of the US, as determined by the average of 2 Hb values measured by the central laboratory during Screening. • Serum ferritin ≥100 ng/mL and transferrin saturation (TSAT) 20% during Screening. • Folate and vitamin B12 measurements lower limit of normal during Screening. • Understands the procedures and requirements of the study and provides written informed consent and authorization for protected health information disclosure.
(§2) Exclusion Criteria: • Anemia due to a cause other than CKD or subjects with active bleeding or recent blood loss. • History of sickle cell disease, myelodysplastic syndromes, bone marrow fibrosis, hematologic malignancy, myeloma, hemolytic anemia, thalassemia, or pure red cell aplasia. • Red blood cell (RBC) transfusion within 8 weeks prior to randomization. • Anticipated to recover adequate kidney function to no longer require dialysis. • Aspartate aminotransferase (AST)/serum glutamic oxaloacetic transaminase (SGOT), alanine aminotransferase (ALT)/serum glutamic pyruvic transaminase (SGPT), or total bilirubin >2.0×upper limit of normal (ULN) during Screening. […]

[2] = test system: subjects receiving hemodialysis, previously maintained on epoetin alfa; conditions: human, in vivo
Experimental: The primary endpoint was mean hemoglobin (Hb) change from pre-baseline average to midtrial (Weeks 7-8) and end-of trial (Weeks 15-16) and was analyzed using available data (no imputation).

[3] = test system: anemic DD-CKD patients with incident dialysis and limited ESA exposure; assay: Phase 3 Incident DD-CKD (Correction/Conversion) trial, vadadustat vs darbepoetin alfa; type: in vivo, human; conditions: for Ferritin, mean / Hepcidin, mean / TSAT, mean: Incident trial
Experimental: as §1
Phase 3, randomized, open-label, active-controlled study of the efficacy and safety of vadadustat versus darbepoetin alfa for the maintenance treatment of anemia after the correction of hemoglobin (Hb) or conversion from current ESA therapy in subjects who have recently initiated dialysis treatment for DD-CKD. Following a Screening period of up to 8 weeks (56 days), subjects who met all inclusion and none of the exclusion criteria were randomized 1:1 to vadadustat or darbepoetin alfa.
Randomization were stratified by: • Geographic region (United States [US] versus European Union [EU] versus Rest of World [ROW]). • New York Heart Association congestive heart failure (CHF) Class 0 (no CHF) or I versus II or III. • Study entry hemoglobin (Hb) level (<9.5 or ≥9.5 g/dL).
Following randomization, there were 4 periods during the study: • Correction/Conversion Period (Weeks 0 to 23): initial period on study medication. • Maintenance Period (Weeks 24 to 52): period on study medication during which efficacy was assessed (primary evaluation period: Weeks 24 to 36; secondary evaluation period: Weeks 40 to 52). • Long-term Treatment Period (Weeks 53 to End of Treatment [EOT]): continued study medication to assess long-term safety. • Follow-up (EOT+4 weeks): post-treatment visit (either in person or via telephone) for safety.
Inclusion Criteria: Subjects met the following criteria: • ≥18 years of age. • Initiated chronic maintenance dialysis (either peritoneal or hemodialysis) for end-stage kidney disease within 16 weeks prior to Screening. • Mean screening hemoglobin (Hb) between 8.0 and 11.0 g/dL (inclusive), as determined by the average of 2 Hb values measured by the central laboratory during Screening. • Serum ferritin ≥100 ng/mL and transferrin saturation (TSAT) ≥20% at Screening. • Folate and vitamin B12 measurements lower limit of normal at Screening. • Understands the procedures and requirements of the study and provides written informed consent and authorization for protected health information disclosure.
as §2, with “Criteria: Subjects were excluded if they met any of the following criteria:” for “Criteria:”, “Subjects with” for “History of”, “(ULN) at or” for “(ULN)”

For `O=C(O)CNC(=O)c1ncc(-c2cccc(Cl)c2)cc1O` [Compound 1, Vadadustat], the “Ferritin, mean” value ([1]; Baseline) was 846.78 ng/mL, the “Hepcidin, mean” value ([1]; Baseline) was 193.86 ng/mL and the “TSAT, mean” value ([1]; Baseline) was 38.06%. For the same molecule, the “Ferritin, mean” value ([1]; Weeks 24-36) was 801.93 ng/mL, the “Hepcidin, mean” value ([1]; Weeks 24-36) was 146.95 ng/mL and the “TSAT, mean” value ([1]; Weeks 24-36) was 34.77%. The “Ferritin, mean” value ([1]; Weeks 40-52) was 787.27 ng/mL, the “Hepcidin, mean” value ([1]; Weeks 40-52) was 137.41 ng/mL and the “TSAT, mean” value ([1]; Weeks 40-52) was 34.11%. The “proportion of patients requiring RBC transfusions” value ([1]; weeks 24-36) was 2.0%, the “proportion of patients with an average hemoglobin value within the geography-specific target range” value ([1]; weeks 24-36) was 49.2% and the “mean (SEM) change from baseline in hemoglobin” value (shortened to “mean (SEM) change from baseline”) ([1]; weeks 24 to 36) was 0.19 (0.032) g/dL. For the same molecule, the “mean difference between groups (vadadustat vs darbepoetin alfa) in change from baseline in hemoglobin” value ([1]; weeks 24 to 36) was −0.17 (0.033) g/dL, the “proportion of patients requiring RBC transfusions” value ([1]; weeks 40-52) was 3.7% and the “proportion of patients with an average hemoglobin value within the geography-specific target range” value ([1]; weeks 40-52) was 44.3%. For the same molecule, the “mean change from baseline in hemoglobin” value ([1]; weeks 40 to 52) was 0.23 (0.035) g/dL, the “mean difference between groups (vadadustat vs darbepoetin alfa) in change from baseline in hemoglobin” value ([1]; weeks 40 to 52) was −0.18 (0.035) g/dL and the “deaths during the study” value [2] was “No deaths”. The “Ferritin, mean” value ([3]; Baseline) was 469.72 ng/mL, the “Hepcidin, mean” value ([3]; Baseline) was 122.43 ng/mL and the “TSAT, mean” value ([3]; Baseline) was 31.32%. For the same molecule, the “Ferritin, mean” value ([3]; Weeks 24-36) was 495.73 ng/mL, the “Hepcidin, mean” value ([3]; Weeks 24-36) was 96.05 ng/mL and the “TSAT, mean” value ([3]; Weeks 24-36) was 31.65%. For the same molecule, the “Ferritin, mean” value ([3]; Weeks 40-52) was 555.47 ng/mL, the “Hepcidin, mean” value ([3]; Weeks 40-52) was 95.73 ng/mL and the “TSAT, mean” value ([3]; Weeks 40-52) was 33.11%. The “proportion of patients requiring RBC transfusions” value ([3]; weeks 24-36) was 1.3%, the “proportion of patients with an average hemoglobin value within the geography-specific target range” value ([3]; weeks 24-36) was 43.6% and the “mean (SEM) change from baseline” value ([3]; weeks 24 to 36) was 1.26 (0.11) g/dL. For the same molecule, the “mean difference between groups (vadadustat vs darbepoetin alfa) in change from baseline in hemoglobin” value ([3]; weeks 24 to 36) was −0.31 (0.11) g/dL, the “proportion of patients requiring RBC transfusions” value ([3]; weeks 40-52) was 2.4% and the “proportion of patients with an average hemoglobin value within the geography-specific target range” value ([3]; weeks 40-52) was 39.8%. The “mean (SEM) change from baseline” value ([3]; weeks 40 to 52) was 1.42 (0.132) g/dL and the “mean difference between groups (vadadustat vs darbepoetin alfa) in change from baseline in hemoglobin” value ([3]; weeks 40 to 52) was −0.07 (0.13) g/dL.
